Assay results published in patent US10988445B2 (AstraZeneca AB, priority 2015, dated 2021).

tested on: human TH17 cells; assay: Inhibition of IL-17 release from human TH17 cells; type: cell-based; settings: 96 h; isolated human TH17 cells, 4 days culture, IL-17A by HTRF; read-out: pIC50 IL-17 release (converted)
Procedure, shortened: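 TH17 cells (CD4+CXCR3-CCR6+) enriched from healthy-donor PBMC isolated from heparinized whole blood. Supernatants collected on day 4; IL-17A quantified by HTRF.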

`COC1(C(=O)N2Cc3cc(S(C)(=O)=O)ccc3C2C(=O)Nc2ccc(C(O)(C(F)(F)F)C(F)(F)F)cc2)CCC1` (stereo not drawn) [Example 448, N-[4-(1,1,1,3,3,3-Hexafluoro-2-hydroxypropan-2-yl)phenyl]-2-[(1-methoxycyclobutyl)carbonyl]-5-(methylsulfonyl)-2,3-dihydro-1H-isoindole-1-carboxamide] was tested. Which IC50 did it give?
The IC50 was 79.4 nM.

same assay, conditions: Homo sapiens, 96 h, isolated human TH17 cells, 4 days culture, IL-17A by HTRF; read-out: pIC50 IL-17 release (converted)

With `COCCS(=O)(=O)c1ccc2c(c1)CN(C(=O)OC)C2C(=O)Nc1ccc(C(O)(C(F)(F)F)C(F)(F)F)cc1` (stereo not drawn) [Example 704, Methyl 1-{[4-(1,1,1,3,3,3-hexafluoro-2-hydroxypropan-2-yl)phenyl]carbamoyl}-5-[(2-methoxyethyl)sulfonyl]-1,3-dihydro-2H-isoindole-2-carboxylate] as the molecule, how does the IC50 read?
Its IC50 is 25.1 nM.

Which IC50 does the source give for `CCS(=O)(=O)c1ccc2c(c1)CN(C(=O)C1CCOC1)C2C(=O)Nc1ccc(C(O)(C(F)(F)F)C(F)(F)F)cc1` (stereo not drawn) [Example 113, 5-(Ethylsulfonyl)-N-[4-(1,1,1,3,3,3-hexafluoro-2-hydroxypropan-2-yl)phenyl]-2-(tetrahydrofuran-3-ylcarbonyl)-2,3-dihydro-1H-isoindole-1-carboxamide] here?
Its IC50 is 79.4 nM.

With `CC(=O)N1Cc2cc(S(=O)(=O)CC(C)O)ccc2C1C(=O)Nc1ccc(C(O)(C(F)(F)F)C(F)(F)F)cc1` (stereo not drawn) [Example 1200, 2-Acetyl-N-[4-(1,1,1,3,3,3-hexafluoro-2-hydroxypropan-2-yl)phenyl]-5-[(2-hydroxypropyl)sulfonyl]-2,3-dihydro-1H-isoindole-1-carboxamide] as the molecule, how does the IC50 read?
The IC50 was 158 nM.

For `CNS(=O)(=O)c1ccc2c(c1)CN(C(=O)COC)C2C(=O)Nc1ccc(C(O)(C(F)(F)F)C(F)(F)F)cc1` (stereo not drawn) [Example 308, N-[4-(1,1,1,3,3,3-Hexafluoro-2-hydroxypropan-2-yl)phenyl]-2-(methoxyacetyl)-5-(methylsulfamoyl)-2,3-dihydro-1H-isoindole-1-carboxamide], which IC50 is on record?
Its IC50 is 31.6 nM.

Which IC50 does the source give for `CNS(=O)(=O)c1ccc2c(c1)CN(C(=O)[C@@H]1CCCO1)C2C(=O)Nc1ccc(C(O)(C(F)(F)F)C(F)(F)F)cc1` (stereo partly drawn) [Example 311, N-[4-(1,1,1,3,3,3-Hexafluoro-2-hydroxypropan-2-yl)phenyl]-5-(methylsulfamoyl)-2-[(2S)-tetrahydrofuran-2-ylcarbonyl]-2,3-dihydro-1H-isoindole-1-carboxamide] here?
The IC50 was 31.6 nM.

`C[C@@H](F)CC(=O)N1Cc2cc(S(C)(=O)=O)ccc2C1C(=O)Nc1ccc(C(O)(C(F)(F)F)C(F)(F)F)cc1` (stereo partly drawn) [Example 418, 2-[(3R)-3-Fluorobutanoyl]-N-[4-(1,1,1,3,3,3-hexafluoro-2-hydroxypropan-2-yl)phenyl]-5-(methylsulfonyl)-2,3-dihydro-1H-isoindole-1-carboxamide] was tested. Which IC50 did it give?
The IC50 was 39.8 nM.

With `N#CC1(C(=O)N2Cc3cc(S(=O)(=O)C4CC4)ccc3C2C(=O)Nc2ccc(C(O)(C(F)(F)F)C(F)(F)F)cc2)CC1` (stereo not drawn) [Example 607, 2-[(1-Cyanocyclopropyl)carbonyl]-5-(cyclopropylsulfonyl)-N-[4-(1,1,1,3,3,3-hexafluoro-2-hydroxypropan-2-yl)phenyl]-2,3-dihydro-1H-isoindole-1-carboxamide] as the molecule, how does the IC50 read?
Its IC50 is 39.8 nM.

How did the IC50 turn out when `CCS(=O)(=O)c1ccc2c(c1)CN(C(=O)CC1CCC1)C2C(=O)Nc1ccc(C(O)(C(F)(F)F)C(F)(F)F)cc1` (stereo not drawn) [Example 109, 2-(Cyclobutylacetyl)-5-(ethylsulfonyl)-N-[4-(1,1,1,3,3,3-hexafluoro-2-hydroxypropan-2-yl)phenyl]-2,3-dihydro-1H-isoindole-1-carboxamide] was run?
The IC50 was 20 nM.

How did the IC50 turn out when `CC1(C(=O)N2Cc3cc(S(C)(=O)=O)ccc3C2C(=O)Nc2ccc(C(O)(C(F)(F)F)C(F)(F)F)cc2)COC1` (stereo not drawn) [Example 443] was run?
The IC50 was 100 nM.

`CC(C)(O)CC(=O)N1Cc2cc(S(=O)(=O)CC3CC3)ccc2C1C(=O)Nc1ccc(C(O)(C(F)(F)F)C(F)(F)F)cc1` (stereo not drawn) [Example 207, 5-[(Cyclopropylmethyl)sulfonyl]-N-[4-(1,1,1,3,3,3-hexafluoro-2-hydroxypropan-2-yl)phenyl]-2-(3-hydroxy-3-methylbutanoyl)-2,3-dihydro-1H-isoindole-1-carboxamide] was tested. Which IC50 did it give?
The IC50 was 39.8 nM.

Which IC50 does the source give for `CC[C@@H](O)C(=O)N1Cc2cc(S(C)(=O)=O)ccc2C1C(=O)Nc1ccc(C(O)(C(F)(F)F)C(F)(F)F)cc1` (single isomer, unassigned) [Example 409, isomer 1] here?
Its IC50 is 63.1 nM.

Which IC50 does the source give for `CS(=O)(=O)c1ccc2c(c1)CN(C(N)=O)C2C(=O)Nc1ccc(C(O)(C(F)(F)F)C(F)(F)F)cc1` (stereo not drawn) [Example 455, N^1-[4-(1,1,1,3,3,3-Hexafluoro-2-hydroxypropan-2-yl)phenyl]-5-(methylsulfonyl)-1,3-dihydro-2H-isoindole-1,2-dicarboxamide] here?
The IC50 was 100 nM.

For `CNS(=O)(=O)c1ccc2c(c1)CN(C(=O)CO)C2C(=O)Nc1ccc(C(O)(C(F)(F)F)C(F)(F)F)cc1` (stereo not drawn) [Example 313, N-[4-(1,1,1,3,3,3-Hexafluoro-2-hydroxypropan-2-yl)phenyl]-2-(hydroxyacetyl)-5-(methylsulfamoyl)-2,3-dihydro-1H-isoindole-1-carboxamide], which IC50 is on record?
The IC50 was 100 nM.

How did the IC50 turn out when `CS(=O)(=O)c1ccc2c(c1)CN(C(=O)C1(C#N)CC1)C2C(=O)Nc1ccc(C(O)(C(F)(F)F)C(F)(F)F)c(F)c1` (stereo not drawn) [Example 439, 2-[(1-Cyanocyclopropyl)carbonyl]-N-[3-fluoro-4-(1,1,1,3,3,3-hexafluoro-2-hydroxypropan-2-yl)phenyl]-5-(methylsulfonyl)-2,3-dihydro-1H-isoindole-1-carboxamide] was run?
The IC50 was 25.1 nM.

Which IC50 does the source give for `CC(C)(O)CC(=O)N1Cc2cc(S(C)(=O)=O)ccc2C1C(=O)Nc1ccc(C(O)(C(F)(F)F)C(F)(F)F)cc1` (stereo not drawn) [Example 421, N-[4-(1,1,1,3,3,3-Hexafluoro-2-hydroxypropan-2-yl)phenyl]-2-(3-hydroxy-3-methylbutanoyl)-5-(methylsulfonyl)-2,3-dihydro-1H-isoindole-1-carboxamide] here?
Its IC50 is 100 nM.

`O=C(Nc1ccc(C(O)(C(F)(F)F)C(F)(F)F)cc1)C1NCc2cc(S(=O)(=O)CC3(O)CC3)ccc21` (stereo not drawn) [Example 1100, N-[4-(1,1,1,3,3,3-Hexafluoro-2-hydroxypropan-2-yl)phenyl]-5-{[(1-hydroxycyclopropyl)methyl]sulfonyl}-2,3-dihydro-1H-isoindole-1-carboxamide] was tested. Which IC50 did it give?
The IC50 was 200 nM.

Which IC50 does the source give for `CS(=O)(=O)c1ccc2c(c1)CN(C(=O)CC1(C#N)CC1)C2C(=O)Nc1ccc(C(O)(C(F)(F)F)C(F)(F)F)cc1` (stereo not drawn) [Example 427, 2-[(1-Cyanocyclopropyl)acetyl]-N-[4-(1,1,1,3,3,3-hexafluoro-2-hydroxypropan-2-yl)phenyl]-5-(methylsulfonyl)-2,3-dihydro-1H-isoindole-1-carboxamide] here?
The IC50 was 100 nM.

How did the IC50 turn out when `CS(=O)(=O)c1ccc2c(c1)CN(C(=O)CC1CC1)C2C(=O)Nc1ccc(C(O)(C(F)(F)F)C(F)(F)F)cc1` (stereo not drawn) [Example 411, 2-(Cyclopropylacetyl)-N-[4-(1,1,1,3,3,3-hexafluoro-2-hydroxypropan-2-yl)phenyl]-5-(methylsulfonyl)-2,3-dihydro-1H-isoindole-1-carboxamide] was run?
Its IC50 is 25.1 nM.

How did the IC50 turn out when `CCS(=O)(=O)c1ccc2c(c1)CN(C(=O)CC1(N(C)C)CC1)C2C(=O)Nc1ccc(C(O)(C(F)(F)F)C(F)(F)F)cc1` (stereo not drawn) [Example 115, 2-{[1-(Dimethylamino)cyclopropyl]acetyl}-5-(ethylsulfonyl)-N-[4-(1,1,1,3,3,3-hexafluoro-2-hydroxypropan-2-yl)phenyl]-2,3-dihydro-1H-isoindole-1-carboxamide] was run?
The IC50 was 63.1 nM.

Which IC50 does the source give for `CCNC(=O)N1Cc2cc(S(C)(=O)=O)ccc2C1C(=O)Nc1ccc(C(O)(C(F)(F)F)C(F)(F)F)cc1` (stereo not drawn) [Example 454, N^2-Ethyl-N^1-[4-(1,1,1,3,3,3-hexafluoro-2-hydroxypropan-2-yl)phenyl]-5-(methylsulfonyl)-1,3-dihydro-2H-isoindole-1,2-dicarboxamide] here?
The IC50 was 39.8 nM.

Which IC50 does the source give for `CCS(=O)(=O)c1ccc2c(c1)CN(C(=O)C1(C#N)CC1)C2C(=O)Nc1ccc(C(O)(C(F)(F)F)C(F)(F)F)cc1` (stereo not drawn) [Example 105, 2-[(1-Cyanocyclopropyl)carbonyl]-5-(ethylsulfonyl)-N-[4-(1,1,1,3,3,3-hexafluoro-2-hydroxypropan-2-yl)phenyl]-2,3-dihydro-1H-isoindole-1-carboxamide] here?
The IC50 was 20 nM.

How did the IC50 turn out when `COCCS(=O)(=O)c1ccc2c(c1)CN(C=O)C2C(=O)Nc1ccc(C(O)(C(F)(F)F)C(F)(F)F)cc1` (stereo not drawn) [Example 701, 2-Formyl-N-[4-(1,1,1,3,3,3-hexafluoro-2-hydroxypropan-2-yl)phenyl]-5-[(2-methoxyethyl)sulfonyl]-2,3-dihydro-1H-isoindole-1-carboxamide] was run?
Its IC50 is 15.8 nM.

For `CS(=O)(=O)c1ccc2c(c1)CN(C(=O)Cc1ccccc1)C2C(=O)Nc1ccc(C(O)(C(F)(F)F)C(F)(F)F)cc1` (stereo not drawn) [Example 402, N-[4-(1,1,1,3,3,3-Hexafluoro-2-hydroxypropan-2-yl)phenyl]-5-(methylsulfonyl)-2-(phenylacetyl)-2,3-dihydro-1H-isoindole-1-carboxamide], which IC50 is on record?
Its IC50 is 12.6 nM.

For `CS(=O)(=O)c1ccc2c(c1)CN(C=O)C2C(=O)Nc1ccc(C(O)(C(F)(F)F)C(F)(F)F)cc1F` (stereo not drawn) [Example 442], which IC50 is on record?
Its IC50 is 50.1 nM.

Which IC50 does the source give for `O=C(Nc1ccc(C(O)(C(F)(F)F)C(F)(F)F)cc1)C1NCc2cc(S(=O)(=O)CC3(F)CC3)ccc21` (stereo not drawn) [Example 1300, 5-{[(1-Fluorocyclopropyl)methyl]sulfonyl}-N-[4-(1,1,1,3,3,3-hexafluoro-2-hydroxypropan-2-yl)phenyl]-2,3-dihydro-1H-isoindole-1-carboxamide] here?
Its IC50 is 251 nM.

same assay, conditions: isolated human TH17 cells, 4 days culture, IL-17A by HTRF; listed as 307, isomer 1

Which “pIC50 IL-17 release” value does the source give for `CC[C@H](O)C(=O)N1Cc2cc(S(=O)(=O)NC)ccc2C1C(=O)Nc1ccc(C(O)(C(F)(F)F)C(F)(F)F)cc1` (single isomer, unassigned) [Example 307, isomer 1, (R) or (S)N-[4-(1,1,1,3,3,3-Hexafluoro-2-hydroxypropan-2-yl)phenyl]-2-[(2S)-2-hydroxybutanoyl]-5-(methylsulfamoyl)-2,3-dihydro-1H-isoindole-1-carboxamide] here?
The value was 7.5.
